“And” between values parts separate entries of the source, which are not always exact repeats. Identical values can stand only once. Inconclusive results and toxic doses are left out.
Tested on: CD2F1 mice, L1210 leukemia ip, survival T/C
Assay: NCI In Vivo Anticancer Drug Screen. Data for tumor model L1210 Leukemia (intraperitoneal) in CD2F1 (CDF1) mice
Settings: higher = longer survival
Method in brief: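 Antitumor effect is scored in animals hosting a serially transplanted tumor. Values compare compound-dosed animals against vehicle-only controls as a simple quotient.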

[1] = endpoint: mean survival time, dose: 100.0 mg/kg/injection, schedule: Q04DX002 (ip), vehicle: saline with Tween-80
[2] = endpoint: mean survival time, dose: 200.0 mg/kg/injection, schedule: Q04DX002 (ip), vehicle: saline with Tween-80
[3] = endpoint: mean survival time, dose: 25.0 mg/kg/injection, schedule: Q01DX009 (ip), vehicle: saline with Tween-80
[4] = endpoint: mean survival time, dose: 50.0 mg/kg/injection, schedule: Q01DX009 (ip), vehicle: saline with Tween-80
[5] = endpoint: mean survival time, dose: 100.0 mg/kg/injection, schedule: Q01DX009 (ip), vehicle: saline with Tween-80
[6] = endpoint: mean survival time, dose: 200.0 mg/kg/injection, schedule: Q01DX009 (ip), vehicle: saline with Tween-80
[7] = endpoint: mean survival time, dose: 100.0 mg/kg/injection, schedule: Q01DX009 (ip), vehicle: Klucel (hydroxypropylcellulose) (HPC)
[8] = endpoint: mean survival time, dose: 100.0 mg/kg/injection, schedule: Q04DX003 (ip), vehicle: saline with Tween-80
[9] = endpoint: mean survival time, dose: 200.0 mg/kg/injection, schedule: Q04DX003 (ip), vehicle: saline with Tween-80
[10] = endpoint: mean survival time, dose: 400.0 mg/kg/injection, schedule: Q04DX003 (ip), vehicle: saline with Tween-80
[11] = endpoint: mean survival time, dose: 100.0 mg/kg/injection, schedule: Q01DX001 (ip), vehicle: saline with Tween-80
[12] = endpoint: mean survival time, dose: 25.0 mg/kg/injection, schedule: Q04DX003 (ip), vehicle: saline with Tween-80

Cc1cc(S(=O)(=O)c2ccc(O)c(C)c2)ccc1O
T/C [1]: 103 % of control
T/C [2]: 100 % of control
T/C (endpoint: mean survival time, dose: 400.0 mg/kg/injection, schedule: Q04DX002 (ip), vehicle: saline with Tween-80): 97 % of control

O=c1[nH]cnc2c1ncn2C1OC(CO)C(O)C1O.O=c1[nH]cnc2c1ncn2C1OC(CO)C(O)C1O.[NH2-].[NH2-].[Pt+2] (centres undefined)
T/C (endpoint: mean survival time, dose: 12.5 mg/kg/injection, schedule: Q01DX009 (ip), vehicle: saline with Tween-80): 92 % of control
T/C [3]: 96 % of control
T/C [4]: 100 % of control
T/C [5]: 92 % of control
T/C [6]: 103 % of control

NNS(=O)(=O)c1ccc(Oc2ccc(S(=O)(=O)NN)cc2)cc1
T/C (endpoint: mean survival time, dose: 50.0 mg/kg/injection, schedule: Q01DX009 (ip), vehicle: Klucel (hydroxypropylcellulose) (HPC)): 101 % of control
T/C [7]: 96 % of control
T/C (endpoint: mean survival time, dose: 200.0 mg/kg/injection, schedule: Q01DX009 (ip), vehicle: Klucel (hydroxypropylcellulose) (HPC)): 108 % of control

O=C1OC2CC1CCC2Br (centres undefined)
T/C [8]: 94 % of control
T/C [9]: 94 % of control
T/C [10]: 97 % of control

C[C@]12CC[C@@H]3c4ccc(OC(=O)Cc5ccc(N(CCCl)CCCl)cc5)cc4CC[C@H]3[C@@H]1CC[C@@H]2OC(=O)Cc1ccc(N(CCCl)CCCl)cc1
T/C (endpoint: median survival time, dose: 25.0 mg/kg/injection, schedule: Q01DX009 (ip), vehicle: Klucel (hydroxypropylcellulose) (HPC)): 89 % of control
T/C (endpoint: median survival time, dose: 50.0 mg/kg/injection, schedule: Q01DX009 (ip), vehicle: Klucel (hydroxypropylcellulose) (HPC)): 92 % of control
T/C (endpoint: median survival time, dose: 100.0 mg/kg/injection, schedule: Q01DX009 (ip), vehicle: Klucel (hydroxypropylcellulose) (HPC)): 94 % of control
T/C (endpoint: median survival time, dose: 200.0 mg/kg/injection, schedule: Q01DX009 (ip), vehicle: Klucel (hydroxypropylcellulose) (HPC)): 92 % of control
T/C (endpoint: median survival time, dose: 400.0 mg/kg/injection, schedule: Q01DX009 (ip), vehicle: Klucel (hydroxypropylcellulose) (HPC)): 101 % of control

CCOC(=O)N1CCc2nc3cc(OC)ccc3cc21
T/C [11]: 103 % of control
T/C (endpoint: mean survival time, dose: 200.0 mg/kg/injection, schedule: Q01DX001 (ip), vehicle: saline with Tween-80): 98 % of control
T/C (endpoint: mean survival time, dose: 400.0 mg/kg/injection, schedule: Q01DX001 (ip), vehicle: saline with Tween-80): 98 % of control

O=C(O)c1cc(F)ccc1Cl
T/C [1]: 97 % of control
T/C [2]: 86 % of control

CCOC(=O)C(Br)C(Br)c1cccc([N+](=O)[O-])c1 (centres undefined)
T/C (endpoint: mean survival time, dose: 25.0 mg/kg/injection, schedule: Q01DX009 (ip), vehicle: other): 98 % of control
T/C (endpoint: mean survival time, dose: 50.0 mg/kg/injection, schedule: Q01DX009 (ip), vehicle: other): 98 % of control
T/C (endpoint: mean survival time, dose: 100.0 mg/kg/injection, schedule: Q01DX009 (ip), vehicle: other): 101 % of control

CC1(C)N=C(N)N=C(N)N1c1ccc(OCCOc2ccc(S(=O)(=O)F)cc2)c(Cl)c1
T/C [12]: 114 % of control
T/C [8]: 120 % of control

COc1cc2nc(/C=C/c3nc4cc(OC)c(OC)cc4[nH]3)[nH]c2cc1OC
T/C [11]: 106 % of control

CCC(C)C(C)OC(=O)c1cc([N+](=O)[O-])cc([N+](=O)[O-])c1 (centres undefined)
T/C [5]: 105 % of control
T/C [8]: 92 % of control
T/C [6]: 104 % of control
T/C [9]: 97 % of control
T/C (endpoint: mean survival time, dose: 400.0 mg/kg/injection, schedule: Q01DX009 (ip), vehicle: saline with Tween-80): 90 % of control
T/C [10]: 103 % of control

O=C(O)c1ccc(Nc2c3ccccc3nc3ccccc23)cc1
T/C (endpoint: mean survival time, dose: 44.0 mg/kg/injection, schedule: Q01DX009 (ip), vehicle: Klucel (hydroxypropylcellulose) (HPC)): 170 % of control and 179 % of control
T/C (endpoint: mean survival time, dose: 66.0 mg/kg/injection, schedule: Q01DX009 (ip), vehicle: Klucel (hydroxypropylcellulose) (HPC)): 207 % of control and 225 % of control
T/C (endpoint: mean survival time, dose: 75.0 mg/kg/injection, schedule: Q01DX001 (ip), vehicle: Klucel (hydroxypropylcellulose) (HPC)): 121 % of control
T/C (endpoint: mean survival time, dose: 75.0 mg/kg/injection, schedule: Q04DX003 (ip), vehicle: Klucel (hydroxypropylcellulose) (HPC)): 154 % of control
T/C (endpoint: mean survival time, dose: 88.0 mg/kg/injection, schedule: Q01DX001 (ip), vehicle: Klucel (hydroxypropylcellulose) (HPC)): 119 % of control
T/C [7]: 167 % of control and 184 % of control
T/C (endpoint: mean survival time, dose: 100.0 mg/kg/injection, schedule: Q04DX003 (ip), vehicle: Klucel (hydroxypropylcellulose) (HPC)): 162 % of control
T/C (endpoint: mean survival time, dose: 133.0 mg/kg/injection, schedule: Q04DX002 (ip), vehicle: Klucel (hydroxypropylcellulose) (HPC)): 167 % of control
T/C (endpoint: mean survival time, dose: 150.0 mg/kg/injection, schedule: Q04DX002 (ip), vehicle: Klucel (hydroxypropylcellulose) (HPC)): 166 % of control
T/C (endpoint: mean survival time, dose: 150.0 mg/kg/injection, schedule: Q04DX003 (ip), vehicle: Klucel (hydroxypropylcellulose) (HPC)): 172 % of control and 223 % of control
T/C (endpoint: mean survival time, dose: 200.0 mg/kg/injection, schedule: Q04DX002 (ip), vehicle: Klucel (hydroxypropylcellulose) (HPC)): 223 % of control
T/C (endpoint: mean survival time, dose: 225.0 mg/kg/injection, schedule: Q04DX003 (ip), vehicle: Klucel (hydroxypropylcellulose) (HPC)): 301 % of control
T/C (endpoint: mean survival time, dose: 300.0 mg/kg/injection, schedule: Q01DX001 (ip), vehicle: Klucel (hydroxypropylcellulose) (HPC)): 171 % of control and 201 % of control
T/C (endpoint: mean survival time, dose: 300.0 mg/kg/injection, schedule: Q04DX002 (ip), vehicle: Klucel (hydroxypropylcellulose) (HPC)): 212 % of control and 293 % of control
T/C (endpoint: mean survival time, dose: 300.0 mg/kg/injection, schedule: Q04DX003 (ip), vehicle: Klucel (hydroxypropylcellulose) (HPC)): 118 % of control
T/C (endpoint: mean survival time, dose: 450.0 mg/kg/injection, schedule: Q04DX002 (ip), vehicle: Klucel (hydroxypropylcellulose) (HPC)): 225 % of control

CCC(C)CC(N)O (centres undefined)
T/C (endpoint: mean survival time, dose: 75.0 mg/kg/injection, schedule: Q01DX001 (ip), vehicle: saline): 103 % of control
T/C (endpoint: mean survival time, dose: 150.0 mg/kg/injection, schedule: Q01DX001 (ip), vehicle: saline): 97 % of control

C[C@@H]1CC[C@]2(C)CC[C@]3(C)C(=CC[C@@H]4[C@@]5(C)CC[C@@H](OC(=O)c6ccc(O)cc6)C(C)(C)[C@@H]5C[C@H](O)[C@]43C)[C@@H]2[C@H]1C(=O)O
T/C (endpoint: median survival time, dose: 0.06 mg/kg/injection, schedule: Q01DX009 (ip), vehicle: saline with Tween-80): 103 % of control
T/C (endpoint: median survival time, dose: 0.12 mg/kg/injection, schedule: Q01DX009 (ip), vehicle: saline with Tween-80): 111 % of control
T/C (endpoint: median survival time, dose: 0.25 mg/kg/injection, schedule: Q01DX009 (ip), vehicle: saline with Tween-80): 114 % of control
T/C (endpoint: median survival time, dose: 0.5 mg/kg/injection, schedule: Q01DX009 (ip), vehicle: saline with Tween-80): 123 % of control
T/C (endpoint: median survival time, dose: 1.0 mg/kg/injection, schedule: Q01DX009 (ip), vehicle: saline with Tween-80): 107 % of control

Cc1cc(F)ccc1[NH-].Cc1cc(F)ccc1[NH-].[Cl][Pt+2][Cl]
T/C (endpoint: mean survival time, dose: 12.5 mg/kg/injection, schedule: Q04DX003 (ip), vehicle: saline with Tween-80): 106 % of control
T/C [12]: 101 % of control
T/C (endpoint: mean survival time, dose: 50.0 mg/kg/injection, schedule: Q04DX003 (ip), vehicle: saline with Tween-80): 91 % of control
T/C [8]: 95 % of control
T/C [9]: 89 % of control

CN(C)NC=O
T/C (endpoint: mean survival time, dose: 100.0 mg/kg/injection, schedule: Q04DX002 (ip), vehicle: saline): 101 % of control
T/C (endpoint: mean survival time, dose: 200.0 mg/kg/injection, schedule: Q04DX002 (ip), vehicle: saline): 101 % of control
T/C (endpoint: mean survival time, dose: 400.0 mg/kg/injection, schedule: Q04DX002 (ip), vehicle: saline): 101 % of control

Clc1ccc(OCc2sc3ccc(Cl)cc3c2CN2CCCCC2)cc1
T/C [3]: 100 % of control
T/C [4]: 97 % of control
T/C [5]: 95 % of control

COc1ccc(Cn2cnc3c(=S)nc[nH]c32)cc1
T/C (endpoint: mean survival time, dose: 100.0 mg/kg/injection, schedule: Q01DX001 (ip), vehicle: Klucel (hydroxypropylcellulose) (HPC)): 91 % of control
T/C (endpoint: mean survival time, dose: 200.0 mg/kg/injection, schedule: Q01DX001 (ip), vehicle: Klucel (hydroxypropylcellulose) (HPC)): 100 % of control
T/C (endpoint: mean survival time, dose: 400.0 mg/kg/injection, schedule: Q01DX001 (ip), vehicle: Klucel (hydroxypropylcellulose) (HPC)): 94 % of control

C=CC[n+]1ccc2ccccc2c1
T/C (endpoint: mean survival time, dose: 100.0 mg/kg/injection, schedule: Q04DX003 (ip), vehicle: saline sonified): 97 % of control

Cc1ccc(C2=C(O)C(=O)C(c3ccc(C)cc3)C2=O)cc1 (centres undefined)
T/C [8]: 93 % of control
T/C [9]: 96 % of control

CCCC(=O)NC1=C(Cl)C(=O)c2ccccc2C1=O
T/C (endpoint: mean survival time, dose: 5.0 mg/kg/injection, schedule: Q01DX001 (ip), vehicle: saline): 88 % of control
T/C (endpoint: mean survival time, dose: 10.0 mg/kg/injection, schedule: Q01DX001 (ip), vehicle: saline): 103 % of control
T/C (endpoint: mean survival time, dose: 20.0 mg/kg/injection, schedule: Q01DX001 (ip), vehicle: saline): 95 % of control

— PubChem BioAssay AID256 (DTP/NCI, 2004)
